The source of these data is US8431563B2 (priority 2010, dated 2013).

The target of the first experiment is T1, GKRP (Glucokinase Regulatory Protein) with human His-hepatic GK (Homo sapiens, UniProt Q14397).
T1 sequence (Q14397 1-625): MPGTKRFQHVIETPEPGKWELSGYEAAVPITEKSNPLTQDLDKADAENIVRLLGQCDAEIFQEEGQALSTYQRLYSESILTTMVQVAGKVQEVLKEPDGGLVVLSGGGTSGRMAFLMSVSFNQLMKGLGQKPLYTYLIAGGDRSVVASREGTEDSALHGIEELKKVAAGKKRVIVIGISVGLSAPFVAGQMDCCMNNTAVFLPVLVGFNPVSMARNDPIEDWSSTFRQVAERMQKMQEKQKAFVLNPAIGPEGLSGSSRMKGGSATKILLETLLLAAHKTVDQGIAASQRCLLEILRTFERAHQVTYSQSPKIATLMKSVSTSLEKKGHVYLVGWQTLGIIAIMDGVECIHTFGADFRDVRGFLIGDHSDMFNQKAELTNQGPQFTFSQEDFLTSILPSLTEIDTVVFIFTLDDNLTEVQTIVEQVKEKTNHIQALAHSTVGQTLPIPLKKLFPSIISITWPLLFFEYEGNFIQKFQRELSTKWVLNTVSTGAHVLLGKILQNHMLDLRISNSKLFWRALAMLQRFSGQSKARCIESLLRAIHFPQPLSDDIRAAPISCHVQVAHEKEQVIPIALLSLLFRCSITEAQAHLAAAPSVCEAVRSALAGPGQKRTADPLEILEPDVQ
Kind of experiment: GKRP LC MS/MS Biochemical Assay. Particulars: GK-GKRP EC50 (LC MS/MS), 13C-glucose-6-phosphate formation; 1 μM GKRP (10×), 30 nM GK (5×). The procedure, abridged:
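Human His-hepatic GK (working stock 30 nM, 5×) with GKRP in 50 mM Tris pH 7.5, 4 mM MgCl2, 6% DMSO, DTT, BSA and Brij-35. After a 30 min preincubation, GK was added and the reaction ran 30 min at room temperature. Stopped with acetonitrile; 13C-glucose-6-phosphate formed from 13C-glucose quantified by LC MS/MS.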
`O=S(=O)(c1cccs1)N1CCN(c2ccc(C(O)(C(F)(F)F)C(F)(F)F)cc2-c2cccnc2)CC1` [Example 72, 1,1,1,3,3,3-hexafluoro-2-(3-(3-pyridinyl)-4-(4-(2-thiophenylsulfonyl)-1-piperazinyl)phenyl)-2-propanol]: a half-maximal effect (EC50) was put at 783 nM.

The compound `O=S(=O)(c1cccs1)N1CCN(c2ccc(C(O)(C(F)(F)F)C(F)(F)F)cc2-c2ccsc2)CC1` [Example 73, 1,1,1,3,3,3-hexafluoro-2-(3-(3-thiophenyl)-4-(4-(2-thiophenylsulfonyl)-1-piperazinyl)phenyl)-2-propanol] displayed a half-maximal effective concentration (EC50) of 1900 nM.

With `O=S(=O)(c1cccs1)N1CCN(c2ccc(C(O)(C(F)(F)F)C(F)(F)F)cc2-c2ccc(O)cc2)CC1` [Example 74, 2′-(4-(2-thiophenylsulfonyl)-1-piperazinyl)-5′-(2,2,2-trifluoro-1-hydroxy-1-(trifluoromethyl)ethyl)-4-biphenylol], the response was half-maximal at 1370 nM (EC50).

A further experiment concerns the target T1, GKRP (Glucokinase Regulatory Protein) with human His-hepatic GK. Nature of the experiment: GKRP NADPH Coupled Assay. It counts as biochemical. Particulars: GK-GKRP EC50 (NADPH-coupled), indirect measure of glucose-6-phosphate, fluorescence; 1 μM GKRP (10×), 20 nM GK (5×). The procedure, abridged:
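Human His-hepatic GK (5× stock 20 nM) in 50 mM Tris pH 7.5, 4 mM MgCl2, 6% DMSO, 0.1% BSA, 0.01% Brij-35, with GKRP and compound preincubated 30 min, then reaction 1 h at RT. Glucose-6-phosphate read indirectly via G6P dehydrogenase-coupled NADPH formation from β-NADP (2× stop/detection reagent, pH 9.2, 5 min).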
With `O=S(=O)(c1cccs1)N1CCN(c2ccc(C(O)(C(F)(F)F)C(F)(F)F)cc2-c2cccnc2)CC1` [Example 72, 1,1,1,3,3,3-hexafluoro-2-(3-(3-pyridinyl)-4-(4-(2-thiophenylsulfonyl)-1-piperazinyl)phenyl)-2-propanol], the EC50 is 775 nM.

`O=S(=O)(c1cccs1)N1CCN(c2ccc(C(O)(C(F)(F)F)C(F)(F)F)cc2-c2ccsc2)CC1` [Example 73, 1,1,1,3,3,3-hexafluoro-2-(3-(3-thiophenyl)-4-(4-(2-thiophenylsulfonyl)-1-piperazinyl)phenyl)-2-propanol]: the response was half-maximal at 3500 nM (EC50).

For `O=S(=O)(c1cccs1)N1CCN(c2ccc(C(O)(C(F)(F)F)C(F)(F)F)cc2-c2ccc(O)cc2)CC1` [Example 74, 2′-(4-(2-thiophenylsulfonyl)-1-piperazinyl)-5′-(2,2,2-trifluoro-1-hydroxy-1-(trifluoromethyl)ethyl)-4-biphenylol], the 50% effective concentration (EC50) was 1470 nM.

A further experiment deals with T2, GK-GKRP (Homo sapiens, UniProt Q14397).
T2 sequence (Q14397 1-625): T1 sequence (Q14397 1-625)
Nature of the experiment: biochemical. The conditions noted are these: GK-GKRP IC50 (Binding).
`CC#CC1CN(S(=O)(=O)c2ccc(N)nc2)CCN1c1ncc(C(C)(O)C(F)(F)F)cn1` (mixture of isomers) [Example 251, 2-(2-(4-((6-amino-3-pyridinyl)sulfonyl)-2-(1-propyn-1-yl)-1-piperazinyl)-5-pyrimidinyl)-1,1,1-trifluoro-2-propanol] came in with a 50% inhibitory concentration (IC50) of 36 nM.

`CC(c1ccccc1)N(C[C@H]1CN(S(=O)(=O)c2cccs2)CCN1c1ccc(C(C)(O)C(F)(F)F)cc1)S(C)(=O)=O` (mixture of isomers) [Example 252, N-(1-phenylethyl)-N-(((2R)-4-(2-thiophenylsulfonyl)-1-(4-(2,2,2-trifluoro-1-hydroxy-1-methylethyl)phenyl)-2-piperazinyl)methyl)methanesulfonamide] came in with an IC50 of 671 nM.

Compound `CC(C)CS(=O)(=O)N(C[C@H]1CN(S(=O)(=O)c2cccs2)CCN1c1ccc(C(C)(O)C(F)(F)F)cc1)c1cccnc1` (mixture of isomers) [Example 253, 2-methyl-N-3-pyridinyl-N-(((2R)-4-(2-thiophenylsulfonyl)-1-(4-(2,2,2-trifluoro-1-hydroxy-1-methylethyl)phenyl)-2-piperazinyl)methyl)-1-propanesulfonamide] displayed an IC50 of 35 nM.

As for `CC(O)(c1ccc(N2CCN(S(=O)(=O)c3cccs3)C[C@@H]2CNS(=O)(=O)c2ccc(F)cc2)cc1)C(F)(F)F` (mixture of isomers) [Example 254, 4-fluoro-N-(((2S)-4-(2-thiophenylsulfonyl)-1-(4-(2,2,2-trifluoro-1-hydroxy-1-methylethyl)phenyl)-2-piperazinyl)methyl)benzenesulfonamide], the concentration for half-maximal inhibition (IC50) was 323 nM.

Take `CC(O)(c1ccc(N2CCN(S(=O)(=O)c3cccs3)C[C@@H]2CN(c2ccc(F)cc2)S(C)(=O)=O)cc1)C(F)(F)F` (mixture of isomers) [Example 255, N-(4-fluorophenyl)-N-(((2R)-4-(2-thiophenylsulfonyl)-1-(4-(2,2,2-trifluoro-1-hydroxy-1-methylethyl)phenyl)-2-piperazinyl)methyl)methanesulfonamide]: the IC50 is 2 nM.

Turning to `CC(=O)N(C[C@H]1CN(S(=O)(=O)c2cccs2)CCN1c1ccc(C(C)(O)C(F)(F)F)cc1)c1ccc(F)cc1` (mixture of isomers) [Example 256, N-(4-fluorophenyl)-N-(((2S)-4-(2-thiophenylsulfonyl)-1-(4-(2,2,2-trifluoro-1-hydroxy-1-methylethyl)phenyl)-2-piperazinyl)methyl)acetamide], the 50% inhibitory concentration (IC50) was determined as 23 nM.

Turning to `CC#CC1CN(S(=O)(=O)c2nnc(N)s2)CCN1c1ccc(C(O)(C(F)(F)F)C(F)(F)F)cc1` (racemic) [Example 249, 2-(4-(4-((5-amino-1,3,4-thiadiazol-2-yl)sulfonyl)-2-(1-propyn-1-yl)-1-piperazinyl)phenyl)-1,1,1,3,3,3-hexafluoro-2-propanol], the 50% inhibitory concentration (IC50) came out at 112 nM.

Take `CC#CC1CN(S(=O)(=O)c2cnc(N)c(F)c2)CCN1c1ccc(C(O)(C(F)(F)F)C(F)(F)F)cc1` (racemic) [Example 250, 2-(4-(4-((6-amino-5-fluoro-3-pyridinyl)sulfonyl)-2-(1-propyn-1-yl)-1-piperazinyl)phenyl)-1,1,1,3,3,3-hexafluoro-2-propanol]: the concentration for half-maximal inhibition (IC50) was found to be 15 nM.

In turn, `CC(O)(c1cnc(-c2ccc(S(=O)(=O)c3ccc(N)nc3)cc2)nc1)C(F)(F)F` (racemic) [Example 265, 2-(2-(4-((6-amino-3-pyridinyl)sulfonyl)phenyl)-5-pyrimidinyl)-1,1,1-trifluoro-2-propanol] yielded a 50% inhibitory concentration (IC50) of 229 nM.

In turn, `CC#CC1CN(S(=O)(=O)c2ccc(N)nc2)CCN1c1ncc(C(C)(O)C(F)(F)F)cn1` (single isomer, unassigned) [Example 251 First Eluting Peak from Set One, 2-(2-(4-((6-amino-3-pyridinyl)sulfonyl)-2-(1-propyn-1-yl)-1-piperazinyl)-5-pyrimidinyl)-1,1,1-trifluoro-2-propanol] came in with an IC50 of 15 nM.

In the case of `CC#CC1CN(S(=O)(=O)c2ccc(N)nc2)CCN1c1ncc(C(C)(O)C(F)(F)F)cn1` (single isomer, unassigned) [Example 251 First Eluting Peak from Set Two, 2-(2-(4-((6-amino-3-pyridinyl)sulfonyl)-2-(1-propyn-1-yl)-1-piperazinyl)-5-pyrimidinyl)-1,1,1-trifluoro-2-propanol], the IC50 came to 11300 nM. Compared with the last compound, the IC50 is about 750-fold higher.

The compound `CC#CC1CN(S(=O)(=O)c2ccc(N)nc2)CCN1c1ncc(C(C)(O)C(F)(F)F)cn1` (single isomer, unassigned) [Example 251 Second Eluting Peak from Set One, 2-(2-(4-((6-amino-3-pyridinyl)sulfonyl)-2-(1-propyn-1-yl)-1-piperazinyl)-5-pyrimidinyl)-1,1,1-trifluoro-2-propanol] displayed an IC50 of 9 nM.

Regarding `CC#CC1CN(S(=O)(=O)c2ccc(N)nc2)CCN1c1ncc(C(C)(O)C(F)(F)F)cn1` (single isomer, unassigned) [Example 251 Second Eluting Peak from Set Two, 2-(2-(4-((6-amino-3-pyridinyl)sulfonyl)-2-(1-propyn-1-yl)-1-piperazinyl)-5-pyrimidinyl)-1,1,1-trifluoro-2-propanol], the IC50 was determined as 15300 nM.

In the case of `CC(O)(c1ccc(N2CCN(S(=O)(=O)c3cccs3)C[C@@H]2CN2CCNC(C(F)(F)F)C2)cc1)C(F)(F)F` (single isomer, unassigned) [Example 270 Peak 1], the concentration for half-maximal inhibition (IC50) turned out to be 251 nM.

As for `CC(O)(c1ccc(N2CCN(S(=O)(=O)c3cccs3)C[C@@H]2CN2CCNC(C(F)(F)F)C2)cc1)C(F)(F)F` (single isomer, unassigned) [Example 270 Peak 2], the IC50 was found to be 463 nM. Compared with the last compound, the IC50 is about 1.8-fold higher.

`CC(O)CC1CN(S(=O)(=O)c2ccc(N)nc2)CCN1c1ncc(C(O)(C(F)(F)F)C(F)(F)F)cn1` (centres unmarked) [Example 244, 2-(2-(4-((6-amino-3-pyridinyl)sulfonyl)-2-(2-hydroxypropyl)-1-piperazinyl)-5-pyrimidinyl)-1,1,1,3,3,3-hexafluoro-2-propanol] gave an IC50 of 743 nM.

For the compound `CC#C[C@H]1CN(S(=O)(=O)c2ccccc2)CCN1c1ccc(C(O)(C(F)(F)F)C(F)(F)F)cc1` [Example 247, 1,1,1,3,3,3-hexafluoro-2-(4-((2S)-4-(phenylsulfonyl)-2-(1-propyn-1-yl)-1-piperazinyl)phenyl)-2-propanol], the 50% inhibitory concentration (IC50) came out at 21 nM.

Regarding `CC#CC1CN(S(=O)(=O)c2nccs2)CCN1c1ccc(C(O)(C(F)(F)F)C(F)(F)F)cc1` (centres unmarked) [Example 248], the IC50 was 15 nM.

In the case of `CC#Cc1cc(C(O)(C(F)(F)F)C(F)(F)F)ccc1N1CCN(S(=O)(=O)c2cccs2)CC1` [Example 262, 1,1,1,3,3,3-hexafluoro-2-(3-(1-propyn-1-yl)-4-(4-(2-thiophenylsulfonyl)-1-piperazinyl)phenyl)-2-propanol], the IC50 turned out to be 834 nM.

Take `Nc1ccc(S(=O)(=O)N2CCN(c3ncc(C(O)(C(F)(F)F)C(F)(F)F)cn3)[C@@H](CN3C4CCC3COC4)C2)cn1` [Example 271, 2-(2-((2S)-4-((6-amino-3-pyridinyl)sulfonyl)-2-(3-oxa-8-azabicyclo[3.2.1]oct-8-ylmethyl)-1-piperazinyl)-5-pyrimidinyl)-1,1,1,3,3,3-hexafluoro-2-propanol]: the IC50 amounted to 3 nM. Compared with the last compound, the IC50 is about 280-fold lower.

What is called EC50 is the concentration at which the effect is half-maximal. Read a high EC50 as lower potency in that assay. By IC50 is commonly meant the midpoint of a concentration-inhibition curve.
